# Data published in US10100056B2, “SHIP1 modulators and methods related thereto” (Aquinox Pharmaceuticals (Canada) Inc., priority 2013, dated 2018).
# Marks after values point to notes of the source that are not given here.
# Target: T1, His-hSHIP1 enzyme (Homo sapiens, UniProt Q92835)
# T1 construct: His
# T1 sequence (Q92835 1-1189): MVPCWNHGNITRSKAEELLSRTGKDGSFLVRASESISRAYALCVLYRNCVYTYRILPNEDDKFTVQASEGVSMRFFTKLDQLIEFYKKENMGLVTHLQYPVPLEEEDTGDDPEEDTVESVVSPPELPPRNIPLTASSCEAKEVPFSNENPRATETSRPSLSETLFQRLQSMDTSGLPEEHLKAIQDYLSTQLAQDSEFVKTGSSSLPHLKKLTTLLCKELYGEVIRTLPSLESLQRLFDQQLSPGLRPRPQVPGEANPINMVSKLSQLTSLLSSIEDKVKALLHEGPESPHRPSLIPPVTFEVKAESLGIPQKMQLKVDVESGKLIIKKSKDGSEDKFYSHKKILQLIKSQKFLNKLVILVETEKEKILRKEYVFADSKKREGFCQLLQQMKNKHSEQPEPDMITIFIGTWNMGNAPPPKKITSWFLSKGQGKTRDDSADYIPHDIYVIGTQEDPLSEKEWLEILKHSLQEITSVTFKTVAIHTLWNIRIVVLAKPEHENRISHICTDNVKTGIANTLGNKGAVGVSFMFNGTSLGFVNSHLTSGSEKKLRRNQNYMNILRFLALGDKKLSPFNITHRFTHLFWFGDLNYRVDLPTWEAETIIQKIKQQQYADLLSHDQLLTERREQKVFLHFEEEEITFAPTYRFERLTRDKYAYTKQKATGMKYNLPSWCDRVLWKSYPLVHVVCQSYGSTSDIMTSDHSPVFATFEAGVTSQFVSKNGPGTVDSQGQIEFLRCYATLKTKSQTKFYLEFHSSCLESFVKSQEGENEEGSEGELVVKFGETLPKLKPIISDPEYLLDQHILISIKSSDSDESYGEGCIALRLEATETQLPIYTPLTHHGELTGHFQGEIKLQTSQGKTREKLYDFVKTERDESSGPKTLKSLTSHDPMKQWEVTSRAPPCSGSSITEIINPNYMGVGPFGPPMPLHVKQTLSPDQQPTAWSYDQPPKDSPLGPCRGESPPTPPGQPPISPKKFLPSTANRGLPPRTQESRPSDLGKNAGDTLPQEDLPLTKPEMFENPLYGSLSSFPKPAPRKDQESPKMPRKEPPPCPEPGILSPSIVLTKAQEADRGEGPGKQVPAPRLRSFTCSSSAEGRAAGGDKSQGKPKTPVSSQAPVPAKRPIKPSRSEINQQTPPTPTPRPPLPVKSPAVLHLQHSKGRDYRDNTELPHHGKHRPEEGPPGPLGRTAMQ
# Experiment: His-hSHIP1 activity (phosphatase assay, IP4 substrate, Biomol Green)
# Format: biochemical
# Set-up: key to Scoring, Approach 2 (Initial velocity Ratio): +++: higher than reference or reference - 15%; ++: reference - 16% to reference - 30%; +: reference - 31% or lower; −: inhibitor
# Details: first approach: IP4 50 μM, test compound 0-300 μM; values marked with asterisk
# Protocol: Test compounds are dissolved in 95% ethanol to form stock solutions. Before screening, the stock solutions are diluted with Phosphatase Assay Buffer (20 mM Tris-HCL, 10 mM MgCl2 pH 7.5, 0.02% Tween 20) to form working assay solutions that contain 10% ethanol. The assay is carried out on 96-well microtiter plates using a modified procedure of that reported by Ong et al., Blood 110, 1942-1949, 2007 and Yang et al., Org Lett 7, 1073-1076, 2005, both of which references are incorporated herein by reference in their entirety.
# Data were generated by one of two variant methods. Test compounds are screened by one of two approaches described as follows. In the first approach, each reaction contains 5 μL of His-hSHIP1 enzyme (5-20 ng), 10 μL of the substrate, 1,3,4,5-inositol tetrakisphosphate (IP4; 50 μM final), 5 μL of Phosphatase Assay Buffer, and 5 µL of test compound at various concentrations in 10% ethanol (0-300 μM final). Control blanks are also prepared by replacing His-hSHIP1 enzyme, IP4, or test compounds with Phosphatase Assay Buffer. After adding the reaction components in a 96-well microtiter plate on ice, the reaction is mixed by briefly shaking the plate vigorously. The reaction is then incubated at 37° C. for 15 min with gentle shaking followed by addition of 100 μL of Biomol Green Reagent (BIOMOL, PA, USA) to terminate the reaction. The free phosphate released from IP4 by His-hSHIP1 binds to the Biomol Green Reagent, which turns the dye to green color. After incubating the mixture for 20 min at room temperature for color development, the absorbance is read with SpectraMax Plus 96-well plate reader (Molecular Devices, Sunnyvale, Calif., USA) at a wavelength of 650 nm.
# In the second approach, a master mix is prepared that contains 50 μL of His-hSHIP1 enzyme (0.4-1.6 ng/μL final), 25 μL of the substrate, IP4 (25 or 250 μM final), and 50 μL of test compound in 3.3% ethanol (100 μL final). Control blanks are also prepared by replacing His-hSHIP1 enzyme, IP4, or test compounds with Phosphate Assay Buffer. […] Each reaction component is preincubated at 37° C. for 30 min before adding to a 96-well microtiter plate. The master mix is then incubated at 37° C. At time 0, 20, and 30 min, 25 μL of the master mix is removed and transferred to a new 96-well microtiter plate, to which 100 μL of Biomol Green Reagent is added to stop the reaction. After incubating the mixture for 20 min at room temperature for color development, the absorbance is read with SpectraMax Plus 96-well plate reader at a wavelength of 650 nm. Phosphate released is plotted against time to calculate the initial velocities (i.e., slope of the graph) at each IP4 concentration. The initial velocities are baseline corrected and the ratio of initial velocities (IP425/IP4250) is calculated and used to rate the test compounds.
row,SMILES,"Scoring, Approach 1 (% increase relative to background)"
1,"C=C1CC[C@H]2[C@H](CO)[C@@H]([C@@]3(C)CC[C@H](N)C[C@@H]3CO)CC[C@]12C [Cpd. No. 63, ((1S,2R,5S)-5-amino-2-((3aS,4R,5S,7aS)-4-(hydroxymethyl)-7a-methyl-1-methyleneoctahydro-1H-inden-5-yl)-2-methylcyclohexyl)methanol]",++* (50 ≤ x < 65)

# Same assay, conditions: second approach: ratio of initial velocities IP4 25/250 μM compared with reference compound; values without asterisk
row,SMILES,"Scoring, Approach 2 (Initial velocity Ratio)"
1,"CC1(C)CCC2=C1CC[C@H]([C@@]1(C)CC[C@H](O)C[C@@H]1CO)[C@H]2CNS(C)(=O)=O [Cpd. No. 7, N-(((4R,5S)-5-((1R,2S,4S)-4-hydroxy-2-(hydroxymethyl)-1-methylcyclohexyl)-1,1-dimethyl-2,3,4,5,6,7-hexahydro-1H-inden-4-yl)methyl)methanesulfonamide]",+
2,"CC1(C)CCC2=C1CC[C@H]([C@@]1(C)CC[C@H](O)C[C@@H]1CO)[C@H]2CNC(=O)c1ccccc1 [Cpd. No. 8, N-(((4R,5S)-5-((1R,2S,4S)-4-hydroxy-2-(hydroxymethyl)-1-methylcyclohexyl)-1,1-dimethyl-2,3,4,5,6,7-hexahydro-1H-inden-4-yl)methyl)benzamide]",+
3,"C=C1CC[C@H]2[C@H](CNCc3ccc(F)cc3)[C@@H]([C@@]3(C)CC[C@H](O)C[C@@H]3CO)CC[C@]12C [Cpd. No. 10, (1S,3S,4R)-4-((3aS,4R,5S,7aS)-4-((4-fluorobenzylamino)methyl)-7a-methyl-1-methyleneoctahydro-1H-inden-5-yl)-3-(hydroxymethyl)-4-methylcyclohexanol]",−
4,"C=C1CC[C@H]2[C@H](CNCc3ccccc3C)[C@@H]([C@@]3(C)CC[C@H](O)C[C@@H]3CO)CC[C@]12C [Cpd. No. 15, (1S,3S,4R)-3-(hydroxymethyl)-4-methyl-4-((3aS,4R,5S,7aS)-7a-methyl-4-((2-methylbenzylamino)methyl)-1-methyleneoctahydro-1H-inden-5-yl)cyclohexanol]",++
5,"C=C1CC[C@H]2[C@H](Cn3cccn3)[C@@H]([C@@]3(C)CC[C@H](O)C[C@@H]3CO)CC[C@]12C [Cpd. No. 26, (1S,3S,4R)-4-((3aS,4R,5S,7aS)-4-((1H-pyrazol-1-yl)methyl)-7a-methyl-1-methyleneoctahydro-1H-inden-5-yl)-3-(hydroxymethyl)-4-methylcyclohexanol]",++
6,"C=C1CC[C@H]2[C@H](CNCc3ccc4c(c3)OC(F)(F)O4)[C@@H]([C@@]3(C)CC[C@H](O)C[C@@H]3CO)CC[C@]12C [Cpd. No. 37, (1S,3S,4R)-4-((3aS,4R,5S,7aS)-4-(((2,2-difluorobenzo[d][1,3]dioxol-5-yl)methylamino)methyl)-7a-methyl-1-methyleneoctahydro-1H-inden-5-yl)-3-(hydroxymethyl)-4-methylcyclohexanol]",++
7,"C=C1CC[C@H]2[C@H](CCN(Cc3ccc(OC)cc3)Cc3ccc(OC)cc3)[C@@H]([C@@]3(C)CC[C@H](O)C[C@@H]3O)CC[C@]12C [Cpd. No. 43, (1S,3S,4R)-4-((3aS,4S,5S,7aS)-4-(2-(bis(4-methoxybenzyl)amino)ethyl)-7a-methyl-1-methyleneoctahydro-1H-inden-5-yl)-4-methylcyclohexane-1,3-diol]",++
8,"C=C1CC[C@H]2[C@H](CCNCc3ccc(OC)cc3)[C@@H]([C@@]3(C)CC[C@H](O)C[C@@H]3O)CC[C@]12C [Cpd. No. 44, (1S,3S,4R)-4-((3aS,4S,5S,7aS)-4-(2-(4-methoxybenzylamino)ethyl)-7a-methyl-1-methyleneoctahydro-1H-inden-5-yl)-4-methylcyclohexane-1,3-diol]",++
9,"C=C1CC[C@H]2[C@H](CCNCc3ccc4c(c3)OCO4)[C@@H]([C@@]3(C)CC[C@H](O)C[C@@H]3O)CC[C@]12C [Cpd. No. 45, (1S,3S,4R)-4-((3aS,4S,5S,7aS)-4-(2-(benzo[d][1,3]dioxol-5-ylmethylamino)ethyl)-7a-methyl-1-methyleneoctahydro-1H-inden-5-yl)-4-methylcyclohexane-1,3-diol]",−
10,"C=C1CC[C@H]2[C@H](CN)[C@@H]([C@@]3(C)CC[C@H](O)C[C@@H]3CN)CC[C@]12C [Cpd. No. 47, (1S,3S,4R)-3-(aminomethyl)-4-((3aS,4R,5S,7aS)-4-(aminomethyl)-7a-methyl-1-methyleneoctahydro-1H-inden-5-yl)-4-methylcyclohexanol]",+
11,"C=C1CC[C@H]2[C@H](O)[C@@H]([C@@]3(C)CC[C@H](O)C[C@@H]3CCn3cccc3)CC[C@]12C [Cpd. No. 52, (3aR,4R,5R,7aS)-5-((1S,2S,4S)-2-(2-(1H-pyrrol-1-yl)ethyl)-4-hydroxy-1-methylcyclohexyl)-7a-methyl-1-methyleneoctahydro-1H-inden-4-ol]",−
12,"C=C1CC[C@H]2[C@H](O)[C@@H]([C@@]3(C)CC[C@H](O)C[C@@H]3CCOc3cnccn3)CC[C@]12C [Cpd. No. 56, (3aR,4R,5R,7aS)-5-((1S,2S,4S)-4-hydroxy-1-methyl-2-(2-(pyrazin-2-yloxy)ethyl)cyclohexyl)-7a-methyl-1-methyleneoctahydro-1H-inden-4-ol]",−
13,"C=C1CC[C@H]2[C@H](COCc3ccccn3)[C@@H]([C@@]3(C)CC[C@H](O)C[C@@H]3CO)CC[C@]12C [Cpd. No. 61, (1S,3S,4R)-3-(hydroxymethyl)-4-methyl-4-((3aS,4R,5S,7aS)-7a-methyl-1-methylene-4-((pyridin-2-ylmethoxy)methyl)octahydro-1H-inden-5-yl)cyclohexanol]",++
14,"CC1(C)C=CC2=C1CC[C@H]([C@@]1(C)CC[C@H](O)C[C@@H]1CO)[C@H]2CO [Cpd. No. 65, (1S,3S,4R)-3-(hydroxymethyl)-4-((4R,5S)-4-(hydroxymethyl)-1,1-dimethyl-4,5,6,7-tetrahydro-1H-inden-5-yl)-4-methylcyclohexanol]",++
